Experimental data: patent publication US8057829B2, “Methods for repelling insects using sesquiterpene hydrocarbons and their derivatives” (Sterling International Inc., priority 2008, dated 2011)

Columns and labels:
[1] = system: antennae of housefly, sand fly, and mosquitoes (Aedes aegypti, Aedes increpitus, Anopheles gambiae); assay: GC-EAD antennal responses to SPME samples of patchouli essential oil; conditions: component of patchouli essential oil SPME sample; response by one or more of the insects; FIG. 2
Protocol: (§1) The following procedures were employed to test the EAD response of an insect antenna to a repellent compound. The GC-EAD technique provides an efficient tool for screening behaviorally active repellents. Several synthetic mixtures of potential insect repellent candidates, mostly sesquiterpene hydrocarbons and derivatives, were analyzed in splitless mode using a Varian CP-3800 GC equipped with a polar column (Innowax; 1.0 μm film thickness, 30 m×0.53 mm ID; J & W Scientific), and a 1:1 effluent splitter that allowed simultaneous flame ionization detection (FID) and EAD of the separated volatile compounds. Helium was used as the carrier gas, and the injector temperature was 220° C. The column temperature was 50° C. for 2 min, rising to 240° C. at 10° C./min, then held for 10 min. The outlet for the EAD was held in a humidified air stream flowing at 0.5 liter/min. over an antennal preparation. A glass capillary indifferent electrode filled with Beadle-Ephrussi Ringer, and grounded via a silver wire, was inserted into the severed insect's head with the antennae. A similar recording electrode connected to a high-impedance DC amplifier with automatic baseline drift compensation was placed in contact with the distal end of one antenna (Zhang et al., Chemoecology, 10:69-80 (2000)). The antennal signals were stored and analyzed on a PC equipped with a serial IDAC interface box and the program EAD ver. 2.5 (Syntech, Hilversum, The Netherlands). The compound 1-octen-3-ol (known attractant for many flies and mosquitoes) was included in most of the synthetic mixtures, as a positive control.

[2] = system: Anopheles stephensi; assay: K&D module behavioral bioassay (topical repellency, biting); type: in vivo
Protocol: (§2) The bioassays were conducted with a six-cell in vitro K&D module system, as disclosed in Klun and Debboun, J. Med. Entomol. 37:177-181 (2000), loaded with an “artificial blood” (CPDA+ATP) solution.
(§3) Clove essential oil, patchouli oil, and EAD-active potential repellents, β-caryophyllene, isocaryophyllene, (+)-longifolene, and their 1:1:1 mixture, plus α-guaiene, caryophyllene oxide, and a β-caryophyllene ketone, were tested using the six-cell in vitro K&D module system (Klun and Debboun, J. Med. Entomol. 37:177-181 (2000)) loaded with an “artificial blood” (CPDA+ATP) solution on both Ae. aegypti and An. stephensi in a dose-response fashion. The K&D in vitro assay system has three components: (1) a Plexiglas™ 29.7 cm.×7.1 cm K&D module composed of six adjacent cells, each designed to hold mosquitoes and each having a rectangular 3×4 cm floor hole that is opened and closed by a sliding door; (2) a Plexiglas™ six-well 29.7 cm×7.1 cm water water-bath warmed (38° C.) reservoir with six 3×4 cm wells designed to match the sliding-door openings of the K&D module base and to contain 6 mL warmed “artificial blood” wells covered with a collagen membrane; and (3) a 29.7 cm×7.1 cm'0.4 cm Teflon® separator having six rectangular openings like the K&D module. The K&D module was connected to a constant temperature water circulator at 38° C. The cells were covered with an Edicol collagen membrane strip. Nylon organdy strips with ink cell patterns were numbered and randomly treated with […] of the tested chemical in ethanol (ethanol alone as blank control), plus DEET (ca. 10 μg/cm^2) as a positive control. This treated nylon organdy strip was placed on top of the collagen membrane. The upper section of the K & D module with the six cells each containing 5 mosquitoes (5-10 d old, starved for 24 hr before testing) was placed on top of the nylon strip. The doors to the cells were slid open so the mosquitoes could be free to feed on the “artificial blood” via the collagen membrane if they were hungry. The experiments were allowed to run for 3 minutes, and the number of mosquitoes feeding (biting) in each cell was recorded. After each experiment, the nylon and collagen strips were removed. The CPDA+ATP solution was removed and allowed to dry prior to starting the next experiment. The experiments on each chemical and each mosquito species were run three times before the bottom section with circulated water was cleaned prior to use again.

[3] = system: Aedes aegypti; assay: as above; type: in vivo
Protocol: as §2, §3

[4] = system: Anopheles stephensi; assay: Y-tube olfactometer behavioral bioassay (spatial repellency); type: in vivo
Protocol: (§4) Aegypti and An. stephensi, and one species of sand fly, P. papatasi. Both the mosquitoes and the sand flies used in the study were from colonies maintained at the Walter Reed Army Institute of Research, Department of Entomology, Silver Spring, Md. This Y-tube bioassay system, equipped with CO2-enriched air (ca. 1 l/min) as an attractant, was made from three clear acrylic tubes (4″ diameter; 12″ length) with symmetrical 120° angles among the three tube arms; and a screen butterfly valve on the top part of the bottom releasing tube. These spatial repellency tests were carried out during 8:00 am-12:00 pm (photophase) time period for Ae. aegypti and 1:00-5:00 pm (shifted scotophase) time period for the species of night-flying mosquitoes and sand fly in a temperature and humidity controlled testing room (23-25° C. and 20-40% RH). Female mosquitoes or sand flies were stored at ˜25-26° C., 50-89% RH, 12:12 hr. (L/D), fed with 10% sucrose solution before testing. The candidate chemical (individual or mixture) dispenser and a blank control were placed in the upper left or right arm of the Y-tube before releasing 25-40, 6 to 10 day-old female mosquitoes (or 3 to 10 day-old sand flies) into the bottom tube via a small hole. After a 30-60 sec acclimation period, the butterfly screen valve (door) on the top of the bottom tube was opened. After 10 min., the valve was closed and the numbers of mosquitoes or sand flies in each arm (including the bottom tube) were counted. In order to minimize the position effect, the same experiment was repeated once with the treatment and blank control arms shifted using a new (clean) Y-tube olfactometer and a new batch of mosquitoes/sand flies. Data from these two replicates were pooled for χ2 goodness of fit test (df=1) between the treatment and blank control.

[5] = system: Aedes aegypti; assay: as above; type: in vivo
Protocol: as §4

[6] = system: female antennae of sand fly Phlebotomus papatasi and mosquitoes Aedes aegypti, Anopheles gambiae, Anopheles stephensi; assay: GC-EAD responses of sand fly and three mosquitoes to synthetic mixtures; conditions: about 100 ng of each compound, on one or more of the sand fly or the mosquitoes, FIGS. 9 and 10
Protocol: The GC-EAD responses of female antennae of the sand fly, Phlebotomus papatasi, and three species of mosquitoes, Aedes aegypti, Anopheles gambiae, and anopheles stephensi were tested on a synthetic mixture of 1-octen-3-ol, six sesquiterpene hydrocarbons including (+)-longipinene, (−)-isolongifolene, (+)-longifolene, β-caryophyllene, isolongifolenone, and α-humulene, and several known insect repellents including ZE-nepetalactone, EZ-nepetalactone, with about 100 ng of each compound in the mixture.
The GC-EAD responses of female antennae of the sand fly, Phlebotomus papatasi, and three species mosquitoes, Aedes aegypti, Anopheles gambiae, and anopheles stephensi were tested on a synthetic mixture of 1-octen-3-ol, linalool, β-caryophyllene oxide, isocaryophyllene, β-caryophyllene, and α-humulene, and DEET, with about 100 ng of each compound in the mixture.
as §1, with “control. The results of the experiments are shown in FIGS. 1-10 and described above.” for “control.”

[7] = system: housefly (Musca domestica) antenna; assay: GC-EAD antennal response, housefly; conditions: female housefly antenna; synthetic mixture, about 100 ng of each compound; FIG. 3
Text: The sesquiterpene hydrocarbons and their derivatives disclosed herein have been identified as suitable insect repellents by testing via a gas chromatographic-electroantennographic detection (GC-EAD) method as described in Example 1 below. This method can be used to efficiently screen for potentially behaviorally active compounds, including insect repellents, attractants, deterrents, or attraction-inhibitors from complex natural sources or synthetic mixtures.
The GC-EAD responses of the female housefly antenna were tested on a synthetic mixture of 1-octen-3-ol, a known attractant used as a positive control, and representative sesquiterpene hydrocarbons and derivatives, (+)-longipinene, (−)-isolongifolene, (+)-longifolene, β-caryophyllene, α-humulene, and isolongifolenone, with about 100 ng of each compound in the mixture.
The GC-EAD responses of the male housefly antenna were tested on a synthetic mixture of 1-octen-3-ol, and two representative sesquiterpenes, β-caryophyllene and isocaryophyllene, with about 100 ng of each compound in the mixture.
as §1, with “control. The results of the experiments are shown in FIGS. 1-10 and described above.” for “control.”

[8] = system: female mosquito Culex pipiens antenna; assay: GC-EAD antennal response, Culex pipiens; conditions: female Culex pipiens antennae; about 100 ng of each compound; responses weak, but repeatable; FIGS. 7 and 8
Protocol: The GC-EAD responses of the female mosquito Culex pipiens antenna were tested on a synthetic mixture of 1-octen-3-ol, and two sesquiterpene hydrocarbons, β-caryophyllene and isocaryophyllene, with about 100 ng of each compound in the mixture.
The GC-EAD responses of the female mosquito Culex pipiens antenna were tested on a synthetic mixture of 1-octen-3-ol, and representative sesquiterpene hydrocarbons and derivatives including (+)-longipinene, (−)-isolongifolene, (+)-longifolene, β-caryophyllene, and isolongifolenone, with about 100 ng of each compound in the mixture.
Antennal responses were weak, but repeatable, thus are considered to be true responses.
as §1, with “control. The results of the experiments are shown in FIGS. 1-10 and described above.” for “control.”

[9] = 10 μg/cm^2, DEET values are the positive control run with the chemical
[10] = Anopheles stephensi females, release rate per chemical (β-Caryophyllene 10 mg/day), 10 min
[11] = Aedes aegypti females, release rate per chemical (1-60 mg/day), 10 min

C=C(C)[C@@H]1CCC(C)=C2CC[C@H](C)[C@@H]2C1 [α-Bulnesene, α-bulnesene]
GC-EAD antennal activity [1]: elicited EAD-activity | % of biting (±SE) (N = 3) [2, 9]: 87 ± 7b % | % of biting (±SE) (N = 3) ([2]; 100 μg/cm^2): 0 ± 0a % | % of biting (±SE) (N = 3) ([2]; 500 μg/cm^2): 0 ± 0a % | % of biting (±SE) (N = 3) ([2]; 1000 μg/cm^2): 0 ± 0a % | % of biting (±SE) (N = 3) [3, 9]: 73 ± 7b % | % of biting (±SE) (N = 3) ([3]; 100 μg/cm^2): 0 ± 0a % | % of biting (±SE) (N = 3) ([3]; 500 μg/cm^2): 0 ± 0a % | % of biting (±SE) (N = 3) ([3]; 1000 μg/cm^2): 0 ± 0a % | Number of mosquitoes in each arm: Repellent ([4]; Anopheles stephensi females, release rate per chemical (1-60 mg/day; β-Caryophyllene 10 mg/day), 10 min): 13 | Number of mosquitoes in each arm: Blank [4, 10]: 33 | Number of mosquitoes in each arm: Bottom [4, 10]: 25 | SAI (Spatial Activity Index) ([4]; Anopheles stephensi, β-Caryophyllene 10 mg/day): 0.43 | Number of mosquitoes in each arm: Blank [5, 11]: 35 | Number of mosquitoes in each arm: Bottom [5, 11]: 24 | Number of mosquitoes in each arm: Repellent ([5]; Aedes aegypti females, release rate per chemical (1-60 mg/day), 10 min, two replicates pooled): 11 | SAI (Spatial Activity Index) ([5]; Aedes aegypti, (Nc − Nt)/(Nc + Nt), −1 to 1, zero indicating no response): 0.52

CC1(C)C2=CC(=O)CC(C)(C)[C@]23CC[C@H]1C3 [isolongifolenone, reference compound]
GC-EAD antennal activity [6]: does not appear to have elicited antennal activity | GC-EAD antennal activity [7]: inactive

CC1CCC2=C1CC1CCC2(C)C1(C)C (stereo not drawn) [β-patchoulene, β-Patchoulene]
GC-EAD antennal activity [1]: elicited EAD-activity

CC1=CCC2CC3C(C)CCC13C2(C)C (stereo not drawn) [α-patchoulene, α-Patchoulene]
GC-EAD antennal activity [1]: elicited EAD-activity

C=C1C2CCC3(C)C(C2)C(C)CCC13C (stereo not shown) [seychellene]
GC-EAD antennal activity [1]: elicited EAD-activity

CC1=CC[C@@H]2[C@H]3[C@H]1[C@@]2(C)CCCC3(C)C [(+)-longipinene, (+)-Longipinene]
GC-EAD antennal activity [8]: active | GC-EAD antennal activity [6]: antennally active | GC-EAD antennal activity [7]: active
